# US20250059171A1 (Hoffmann-La Roche Inc., priority 2021, published 2025)
# What was measured:
# SARS-CoV-2 3CLpro = SARS-CoV-2 3CLpro (Severe acute respiratory syndrome coronavirus 2, UniProt P0DTD1); assay: biochemical
# HCoV-229E 3CLpro = HCoV-229E 3CLpro (Human coronavirus 229E, UniProt P0C6X1); assay: HCoV-229E 3CLpro inhibition assay (FRET); format: biochemical
# MERS-CoV 3CLpro = MERS-CoV 3CLpro (Middle East respiratory syndrome-related coronavirus, UniProt K9N7C7); assay: biochemical
# SARS-CoV 3CLpro = SARS-CoV 3CLpro (Severe acute respiratory syndrome coronavirus, UniProt P0C6X7); assay: biochemical
# MERS-CoV 3CLpro, sequence (K9N7C7 3248-3553): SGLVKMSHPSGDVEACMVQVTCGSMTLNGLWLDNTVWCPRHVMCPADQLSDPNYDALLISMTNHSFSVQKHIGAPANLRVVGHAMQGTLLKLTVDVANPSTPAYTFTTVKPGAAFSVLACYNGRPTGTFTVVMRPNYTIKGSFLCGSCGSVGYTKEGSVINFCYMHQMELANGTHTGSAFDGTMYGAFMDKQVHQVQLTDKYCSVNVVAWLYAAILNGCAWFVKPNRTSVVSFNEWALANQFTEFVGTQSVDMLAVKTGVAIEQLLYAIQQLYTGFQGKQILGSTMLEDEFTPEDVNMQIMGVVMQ
# HCoV-229E 3CLpro, sequence (P0C6X1 2966-3267): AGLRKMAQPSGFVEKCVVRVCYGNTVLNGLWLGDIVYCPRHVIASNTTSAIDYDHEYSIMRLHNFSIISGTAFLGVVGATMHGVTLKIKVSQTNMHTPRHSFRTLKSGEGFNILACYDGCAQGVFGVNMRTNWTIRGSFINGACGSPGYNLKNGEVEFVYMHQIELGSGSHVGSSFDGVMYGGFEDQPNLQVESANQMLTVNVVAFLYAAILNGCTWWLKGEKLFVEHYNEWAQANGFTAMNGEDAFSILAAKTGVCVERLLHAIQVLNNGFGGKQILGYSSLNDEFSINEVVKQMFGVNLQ
SMILES,IC50 (SARS-CoV-2 3CLpro) [nM],IC50 (HCoV-229E 3CLpro) [nM],IC50 (MERS-CoV 3CLpro) [nM],IC50 (SARS-CoV 3CLpro) [nM]
"CC(C)(C)[C@H](NC(=O)C1CC1(F)F)C(=O)N1C[C@@H]2CCC[C@@H]2[C@H]1C(=O)NN(C[C@@H]1CCNC1=O)C(=O)[C@H](F)Cl (mixture of isomers) [Example 34, Rac-2,2-difluoro-N-[(1S)-2,2-dimethyl-1-[(3S,3aS,6aR)-3-[[[(2R)-2-chloro-2-fluoro-acetyl]-[[(3S)-2-oxopyrrolidin-3-yl]methyl]amino]carbamoyl]-3,3a,4,5,6,6a-hexahydro-1H-cyclopenta[c]pyrrole-2-carbonyl]propyl]cyclopropanecarboxamide]",8,23,66,12
"CC(F)C(=O)N[C@H](C(=O)N1C[C@@H]2CCC[C@@H]2[C@H]1C(=O)NN(C[C@@H]1CCNC1=O)C(=O)[C@H](F)Cl)C(C)(C)C (mixture of isomers) [Example 36, Rac-2-fluoro-N-[(1S)-2,2-dimethyl-1-[(3S,3aS,6aR)-3-[[[(2R)-2-chloro-2-fluoro-acetyl]-[[(3S)-2-oxopyrrolidin-3-yl]methyl]amino]carbamoyl]-3,3a,4,5,6,6a-hexahydro-1H-cyclopenta[c]pyrrole-2-carbonyl]propyl]propanamide]",7,34,93,12
"CC[C@H](C)[C@H](NC(=O)C1CC1(F)F)C(=O)N1C[C@@H]2CCC[C@@H]2[C@H]1C(=O)NN(C[C@@H]1CCNC1=O)C(=O)[C@H](F)Cl (mixture of isomers) [Example 41, Rac-2,2-difluoro-N-[(1S,2S)-2-methyl-1-[(3S,3aS,6aR)-3-[[[(2R)-2-chloro-2-fluoro-acetyl]-[[(3S)-2-oxopyrrolidin-3-yl]methyl]amino]carbamoyl]-3,3a,4,5,6,6a-hexahydro-1H-cyclopenta[c]pyrrole-2-carbonyl]butyl]cyclopropanecarboxamide]",7,68,221,33
"CC[C@H](C)[C@H](NC(=O)C(C)F)C(=O)N1C[C@@H]2CCC[C@@H]2[C@H]1C(=O)NN(C[C@@H]1CCNC1=O)C(=O)[C@H](F)Cl (mixture of isomers) [Example 43, Rac-2-fluoro-N-[(1S,2S)-2-methyl-1-[(3S,3aS,6aR)-3-[[[(2R)-2-chloro-2-fluoro-acetyl]-[[(3S)-2-oxopyrrolidin-3-yl]methyl]amino]carbamoyl]-3,3a,4,5,6,6a-hexahydro-1H-cyclopenta[c]pyrrole-2-carbonyl]butyl]propanamide]",8,22,58,11
"CC[C@H](C)[C@H](NC(=O)C1CC1(F)F)C(=O)N1C[C@H]2[C@@H]([C@H]1C(=O)NN(C[C@@H]1CCNC1=O)C(=O)[C@H](F)Cl)C2(C)C (mixture of isomers) [Example 53, Rac-2,2-difluoro-N-[(1S,2S)-2-methyl-1-[(1R,2S,5S)-6,6-dimethyl-2-[[[(2R)-2-chloro-2-fluoro-acetyl]-[[(3S)-2-oxopyrrolidin-3-yl]methyl]amino]carbamoyl]-3-azabicyclo[3.1.0]hexane-3-carbonyl]butyl]cyclopropanecarboxamide]",8,32,87,13
"CC[C@H](C)[C@H](NC(=O)C(C)F)C(=O)N1C[C@H]2[C@@H]([C@H]1C(=O)NN(C[C@@H]1CCNC1=O)C(=O)[C@H](F)Cl)C2(C)C (mixture of isomers) [Example 56, Rac-2-fluoro-N-[(1S,2S)-2-methyl-1-[(1R,2S,5S)-6,6-dimethyl-2-[[[(2R)-2-chloro-2-fluoro-acetyl]-[[(3S)-2-oxopyrrolidin-3-yl]methyl]amino]carbamoyl]-3-azabicyclo[3.1.0]hexane-3-carbonyl]butyl]propanamide]",8,18,52,11
"CC[C@H](C)[C@H](NC(=O)C1CC1(F)F)C(=O)N1C[C@H]2[C@@H]([C@H]1C(=O)NN(C[C@@H]1CCNC1=O)C(=O)[C@@H](F)Cl)C2(C)C (mixture of isomers) [Example 111, Rac-2,2-difluoro-N-[(1S,2S)-2-methyl-1-[(1R,2S,5S)-6,6-dimethyl-2-[[[(2S)-2-chloro-2-fluoro-acetyl]-[[(3S)-2-oxopyrrolidin-3-yl]methyl]amino]carbamoyl]-3-azabicyclo[3.1.0]hexane-3-carbonyl]butyl]cyclopropanecarboxamide]",16,37,96,28
"CC(C)(C)[C@H](NC(=O)C(F)(F)F)C(=O)N1CC2(CC2)C[C@H]1C(=O)NN(C[C@@H]1CCNC1=O)C(=O)[C@H](F)Cl [Example 6, N-[(1S)-1-[(6S)-6-[[[(2R)-2-chloro-2-fluoro-acetyl]-[[(3S)-2-oxopyrrolidin-3-yl]methyl]amino]carbamoyl]-5-azaspiro[2.4]heptane-5-carbonyl]-2,2-dimethyl-propyl]-2,2,2-trifluoro-acetamide]",–,42,109,14
"CC1(C)[C@@H]2[C@@H](C(=O)NN(C[C@@H]3CCNC3=O)C(=O)[C@H](F)Cl)N(C(=O)COc3cc(F)cc(F)c3)C[C@@H]21 [Example 17, (1R,2S,5S)—N′-[(2R)-2-chloro-2-fluoro-acetyl]-3-[2-(3,5-difluorophenoxy)acetyl]-6,6-dimethyl-N′—[[(3S)-2-oxopyrrolidin-3-yl]methyl]-3-azabicyclo[3.1.0]hexane-2-carbohydrazide]",121,–,408,429
"CC(C)(C)[C@H](NC(=O)C(F)(F)F)C(=O)N1C[C@H]2[C@@H]([C@H]1C(=O)NN(C[C@@H]1CCNC1=O)C(=O)CCl)C2(C)C [Example 18, N-[(1S)-1-[(1R,2S,5S)-2-[[(2-chloroacetyl)-[[(3S)-2-oxopyrrolidin-3-yl]methyl]amino]carbamoyl]-6,6-dimethyl-3-azabicyclo[3.1.0]hexane-3-carbonyl]-2,2-dimethyl-propyl]-2,2,2-trifluoro-acetamide]",–,–,408,429
"CC[C@H](C)[C@H](NC(=O)C(F)(F)C(F)(F)F)C(=O)N1C[C@@H]2CCC[C@@H]2[C@H]1C(=O)NN(C[C@@H]1CCNC1=O)C(=O)[C@H](F)Cl [Example 50, N-[(1S,2S)-1-[(3S,3aS,6aR)-3-[[[(2R)-2-chloro-2-fluoro-acetyl]-[[(3S)-2-oxopyrrolidin-3-yl]methyl]amino]carbamoyl]-3,3a,4,5,6,6a-hexahydro-1H-cyclopenta[c]pyrrole-2-carbonyl]-2-methyl-butyl]-2,2,3,3,3-pentafluoro-propanamide]",–,17,42,8
"CC1(C)[C@@H]2[C@@H](C(=O)NN(C[C@@H]3CCNC3=O)C(=O)[C@H](F)Cl)N(C(=O)[C@H](CC34CC(C3)C4)NC(=O)C(F)(F)F)C[C@@H]21 [Example 65, N-[(1S)-1-(1-bicyclo[1.1.1]pentanylmethyl)-2-[(1R,2S,5S)-2-[[[(2R)-2-chloro-2-fluoro-acetyl]-[[(3S)-2-oxopyrrolidin-3-yl]methyl]amino]carbamoyl]-6,6-dimethyl-3-azabicyclo[3.1.0]hexan-3-yl]-2-oxo-ethyl]-2,2,2-trifluoro-acetamide]",–,25,–,–
"CCC(CC)[C@H](NC(=O)C(F)(F)F)C(=O)N1C[C@H]2[C@@H]([C@H]1C(=O)NN(C[C@@H]1CCNC1=O)C(=O)[C@H](F)Cl)C2(C)C [Example 84, N-[(1S)-1-[(1R,2S,5S)-2-[[[(2R)-2-chloro-2-fluoro-acetyl]-[[(3S)-2-oxopyrrolidin-3-yl]methyl]amino]carbamoyl]-6,6-dimethyl-3-azabicyclo[3.1.0]hexane-3-carbonyl]-2-ethyl-butyl]-2,2,2-trifluoro-acetamide]",–,30,87,14
"O=C1NCC[C@H]1CN(NC(=O)[C@@H]1[C@H]2CCC[C@H]2CN1C(=O)COc1cccc(F)c1)C(=O)[C@H](F)Cl [Example 88a, (3S,3aS,6aR)—N′-[(2R)-2-chloro-2-fluoro-acetyl]-2-[2-(3-fluorophenoxy)acetyl]-N′—[[(3S)-2-oxopyrrolidin-3-yl]methyl]-3,3a,4,5,6,6a-hexahydro-1H-cyclopenta[c]pyrrole-3-carbohydrazide]",42,–,249,–
"O=C1NCC[C@H]1CN(NC(=O)[C@H]1[C@@H]2CCC[C@@H]2CN1C(=O)COc1cccc(F)c1)C(=O)[C@H](F)Cl [Example 88b, (3R,3aR,6aS)—N′-[(2R)-2-chloro-2-fluoro-acetyl]-2-[2-(3-fluorophenoxy)acetyl]-N′—[[(3S)-2-oxopyrrolidin-3-yl]methyl]-3,3a,4,5,6,6a-hexahydro-1H-cyclopenta[c]pyrrole-3-carbohydrazide]",> 10000,–,155,–
"O=C1NCC[C@H]1CN(NC(=O)[C@@H]1[C@H]2CCC[C@H]2CN1C(=O)COc1cc(F)cc(F)c1)C(=O)[C@H](F)Cl [Example 89a, (3S,3aS,6aR)—N′-[(2R)-2-chloro-2-fluoro-acetyl]-2-[2-(3,5-difluorophenoxy)acetyl]-N′—[[(3S)-2-oxopyrrolidin-3-yl]methyl]-3,3a,4,5,6,6a-hexahydro-1H-cyclopenta[c]pyrrole-3-carbohydrazide]",51,–,> 10000,–
"O=C1NCC[C@H]1CN(NC(=O)[C@H]1[C@@H]2CCC[C@@H]2CN1C(=O)COc1cc(F)cc(F)c1)C(=O)[C@H](F)Cl [Example 89b, (3R,3aR,6aS)—N′-[(2R)-2-chloro-2-fluoro-acetyl]-2-[2-(3,5-difluorophenoxy)acetyl]-N′—[[(3S)-2-oxopyrrolidin-3-yl]methyl]-3,3a,4,5,6,6a-hexahydro-1H-cyclopenta[c]pyrrole-3-carbohydrazide]",> 10000,–,193,–
